{"source": "the Kinase Knowledgebase extract (Sharma et al. 2016)", "data": [{"biological_target": "MAPK14 (human) (UniProt Q16539)", "sequence (Q16539 whole entry, looked up)": "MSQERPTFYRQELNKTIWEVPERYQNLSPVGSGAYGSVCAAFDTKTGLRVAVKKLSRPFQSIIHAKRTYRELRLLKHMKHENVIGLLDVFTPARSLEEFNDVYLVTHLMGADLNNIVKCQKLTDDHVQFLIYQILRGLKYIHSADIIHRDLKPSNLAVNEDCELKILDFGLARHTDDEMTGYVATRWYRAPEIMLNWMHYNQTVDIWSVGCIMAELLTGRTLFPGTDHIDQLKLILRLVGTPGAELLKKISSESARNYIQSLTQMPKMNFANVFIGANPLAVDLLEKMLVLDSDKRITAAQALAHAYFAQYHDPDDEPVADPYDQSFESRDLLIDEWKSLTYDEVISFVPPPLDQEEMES", "experiment": "Inhibition of MAPK14 Kinase Activity", "units": {"IC50": "nM"}, "values": [{"smiles": "CC(C)NC(=O)c1csc(-c2oc(CN3CCN(C(=O)c4ccc(N(C)C=O)cc4)CC3)nc2-c2ccc(F)cc2)n1", "IC50": "≤ 1000"}, {"smiles": "Cc1nc(-c2ccc(F)cc2)c(-c2nc(C(=O)NCCNC(=O)OC(C)(C)C)cs2)s1", "IC50": "≤ 1000"}, {"smiles": "Cc1nc(-c2ccc(F)cc2)c(-c2nc(C(=O)NC3CCC(C)CC3)cs2)s1", "note": "(stereo not drawn)", "IC50": "≤ 1000"}, {"smiles": "CC(C)NC(=O)c1csc(-c2oc(CNC(=O)C(Cc3ccc(O)cc3)NC(=O)OC(C)(C)C)nc2-c2ccc(F)cc2)n1", "note": "(stereo not drawn)", "IC50": "≤ 1000"}, {"smiles": "Cc1nc(-c2ccc(F)cc2)c(-c2nc(C(=O)NCCCCO)cs2)s1", "IC50": "≤ 1000"}, {"smiles": "Cc1nc(-c2ccc(F)cc2)c(-c2nc(C(=O)NC3CCN(Cc4ccccc4)C3)cs2)s1", "note": "(stereo not drawn)", "IC50": "≤ 1000"}, {"smiles": "CC(C)NC(=O)c1csc(-c2oc(CNC(=O)c3cc(O)c(O)c(O)c3)nc2-c2ccc(F)cc2)n1", "IC50": "≤ 1000"}, {"smiles": "Cc1nc(-c2ccc(F)cc2)c(-c2nc(C(=O)NC(C)C)cs2)s1", "IC50": "≤ 1000"}, {"smiles": "CC(C)NC(=O)c1csc(-c2oc(CN3CCN(C(=O)c4cscn4)CC3)nc2-c2ccc(F)cc2)n1", "IC50": "≤ 1000"}, {"smiles": "Cc1nc(-c2ccc(F)cc2)c(-c2nc(C(=O)NCCCN(C)c3ccccc3)cs2)s1", "IC50": "≤ 1000"}, {"smiles": "CC(C)NC(=O)c1csc(-c2c(-c3ccc(F)cc3)n[nH]c2C2CCN(C(=O)C(C)(C)C)CC2)n1", "IC50": "≤ 1000"}, {"smiles": "CC(C)NC(=O)c1csc(-c2oc(CN3CCN(C(=O)CC#N)CC3)nc2-c2ccc(F)cc2)n1", "IC50": "≤ 1000"}, {"smiles": "CC(C)NC(=O)c1coc(-c2c(-c3ccc(F)cc3)noc2C2CCNCC2)n1", "IC50": "≤ 1000"}, {"smiles": "CC(C)NC(=O)c1csc(-c2oc(CNC(=O)c3cnc(O)c(Cl)c3)nc2-c2ccc(F)cc2)n1", "IC50": "≤ 1000"}, {"smiles": "CC(C)NC(=O)c1csc(-c2oc(CNC(=O)c3c(F)c(F)c(F)c(F)c3F)nc2-c2ccc(F)cc2)n1", "IC50": "≤ 1000"}, {"smiles": "COC(=O)N1CCC(c2[nH]nc(-c3ccc(F)cc3)c2-c2nc(C(=O)NC(C)C)cs2)CC1", "IC50": "≤ 1000"}, {"smiles": "CC(C)NC(=O)c1csc(-c2oc(CNC(=O)c3ccc4ncccc4c3)nc2-c2ccc(F)cc2)n1", "IC50": "≤ 1000"}, {"smiles": "CC(C)NC(=O)c1csc(-c2c(-c3ccc(F)cc3)n[nH]c2C2CCN(C(=O)c3ccccc3)CC2)n1", "IC50": "≤ 1000"}, {"smiles": "CCC(CO)NC(=O)c1csc(-c2c(-c3ccc(F)cc3)n[nH]c2C2CCNCC2)n1", "note": "(stereo not drawn)", "IC50": "≤ 1000"}, {"smiles": "Cc1nc(-c2ccc(F)cc2)c(-c2nc(C(=O)NCc3ccco3)cs2)s1", "IC50": "≤ 1000"}, {"smiles": "N#CCNC(=O)c1csc(-c2c(-c3ccc(F)cc3)n[nH]c2C2CCNCC2)n1", "IC50": "≤ 1000"}, {"smiles": "O=C(NC1CCCCC1)c1csc(-c2c(-c3ccc(F)cc3)ncn2C2CCNCC2)n1", "IC50": "≤ 1000"}, {"smiles": "CC(C)NC(=O)c1csc(-c2oc(CNC(=O)c3cncc(Br)c3)nc2-c2ccc(F)cc2)n1", "IC50": "≤ 1000"}, {"smiles": "COc1ccncc1NC(=O)c1csc(-c2sc(C)nc2-c2ccc(F)cc2)n1", "IC50": "≤ 1000"}, {"smiles": "CC(C)NC(=O)c1csc(-c2oc(CNC(=O)c3c(Cl)cc(Cl)cc3Cl)nc2-c2ccc(F)cc2)n1", "IC50": "≤ 1000"}, {"smiles": "CC(C)NC(=O)c1csc(-c2c(-c3ccc(F)cc3)noc2CN(C)CCc2ccccn2)n1", "IC50": "≤ 1000"}, {"smiles": "CC(C)NC(=O)c1csc(-c2c(-c3ccc(F)cc3)noc2C2CCNCC2)n1", "IC50": "≤ 1000"}, {"smiles": "CC(C)NC(=O)c1csc(-c2oc(CNC(C)C(C)C)nc2C2=CC=C(F)OC2)n1", "note": "(stereo not drawn)", "IC50": "≤ 1000"}, {"smiles": "Cc1nc(Br)sc1C(=O)NCc1nc(-c2ccc(F)cc2)c(-c2nc(C(=O)NC(C)C)cs2)o1", "IC50": "≤ 1000"}, {"smiles": "CC(C)NC(=O)c1csc(-c2oc(CNC(=O)c3cscn3)nc2-c2ccc(F)cc2)n1", "IC50": "≤ 1000"}, {"smiles": "CC(C)NC(=O)c1csc(-c2c(-c3ccc(F)cc3)noc2CNC(=O)C(O)CCl)n1", "note": "(stereo not drawn)", "IC50": "≤ 1000"}, {"smiles": "COc1ccc(NC(=O)c2csc(-c3sc(C)nc3-c3ccc(F)cc3)n2)c(C)c1", "IC50": "≤ 1000"}, {"smiles": "Cc1nc(-c2ccc(F)cc2)c(-c2nc(C(=O)Nc3ccc(N(C)C)cc3)cs2)s1", "IC50": "≤ 1000"}, {"smiles": "O=C(NCC(F)(F)F)c1csc(-c2c(-c3ccc(F)cc3)ncn2C2CCNCC2)n1", "IC50": "≤ 1000"}, {"smiles": "CC(C)NC(=O)c1csc(-c2c(-c3ccc(F)cc3)noc2CNC(=O)c2cccc3ccccc23)n1", "IC50": "≤ 1000"}, {"smiles": "CC(C)NC(=O)c1csc(-c2oc(CNC(=O)c3c(F)cccc3F)nc2-c2ccc(F)cc2)n1", "IC50": "≤ 1000"}, {"smiles": "Cc1nc(-c2ccc(F)cc2)c(-c2nc(C(=O)NCc3ccc(Cl)cc3Cl)cs2)s1", "IC50": "≤ 1000"}, {"smiles": "CC(C)NC(=O)c1csc(-c2oc(CNC(=O)c3ccc(Cl)cc3[N+](=O)[O-])nc2-c2ccc(F)cc2)n1", "IC50": "≤ 1000"}, {"smiles": "CC(C)NC(=O)c1csc(-c2oc(CN3CCN(C(=O)C(F)(F)F)CC3)nc2-c2ccc(F)cc2)n1", "IC50": "≤ 1000"}, {"smiles": "CC(C)NC(=O)c1csc(-c2oc(CNC(=O)c3ccccc3Cl)nc2-c2ccc(F)cc2)n1", "IC50": "≤ 1000"}, {"smiles": "CC(C)CC(NC(=O)OC(C)(C)C)C(=O)N1CCC(c2[nH]nc(-c3ccc(F)cc3)c2-c2nc(C(=O)NC(C)C)cs2)CC1", "note": "(stereo not drawn)", "IC50": "≤ 1000"}, {"smiles": "Cc1nc(-c2ccc(F)cc2)c(-c2nc(C(=O)N3CCN(c4ccccc4C#N)CC3)cs2)s1", "IC50": "≤ 1000"}, {"smiles": "CC(C)NC(=O)c1csc(-c2c(-c3ccc(F)cc3)noc2CNCCCN2CCCC2=O)n1", "IC50": "≤ 1000"}, {"smiles": "COCCOCC(=O)N1CCC(c2[nH]nc(-c3ccc(F)cc3)c2-c2nc(C(=O)NC(C)C)cs2)CC1", "IC50": "≤ 1000"}, {"smiles": "C#CCNC(=O)c1csc(-c2c(-c3ccc(F)cc3)ncn2C)n1", "IC50": "≤ 1000"}, {"smiles": "CC(C)NC(=O)c1csc(-c2c(-c3ccc(F)cc3)noc2CN2CCNCC2)n1", "IC50": "≤ 1000"}, {"smiles": "CC(C)Cc1ccc(C(C)C(=O)N2CCN(Cc3nc(-c4ccc(F)cc4)c(-c4nc(C(=O)NC(C)C)cs4)o3)CC2)cc1", "note": "(stereo not drawn)", "IC50": "≤ 1000"}, {"smiles": "O=C(NC1CCCC1)c1csc(-c2c(-c3ccc(F)cc3)ncn2C2CCNCC2)n1", "IC50": "≤ 1000"}, {"smiles": "COc1ccc(C(=O)N2CCN(Cc3nc(-c4ccc(F)cc4)c(-c4nc(C(=O)NC(C)C)cs4)o3)CC2)c(OC)c1OC", "IC50": "≤ 1000"}, {"smiles": "CC(C)NC(=O)c1csc(-c2oc(CNC(=O)c3ccc(Cl)cc3Cl)nc2-c2ccc(F)cc2)n1", "IC50": "≤ 1000"}, {"smiles": "Cc1nc(-c2ccc(F)cc2)c(-c2nc(C(=O)N3CCCC4CCCCC43)cs2)s1", "note": "(stereo not drawn)", "IC50": "≤ 1000"}, {"smiles": "CC(=O)N1CCC(c2[nH]nc(-c3ccc(F)cc3)c2-c2nc(C(=O)NC(C)C)cs2)CC1", "IC50": "≤ 1000"}, {"smiles": "Cc1ccc(CNC(=O)c2csc(-c3sc(C)nc3-c3ccc(F)cc3)n2)cc1", "IC50": "≤ 1000"}, {"smiles": "CC(=O)Oc1cccc(C(=O)N2CCN(Cc3nc(-c4ccc(F)cc4)c(-c4nc(C(=O)NC(C)C)cs4)o3)CC2)c1", "IC50": "≤ 1000"}, {"smiles": "Cc1nc(-c2ccc(F)cc2)c(-c2nc(C(=O)NCCc3cccc(Cl)c3)cs2)s1", "IC50": "≤ 1000"}, {"smiles": "COc1ccc(CNC(=O)c2csc(-c3c(-c4ccc(F)cc4)n[nH]c3C3CCNCC3)n2)cc1", "IC50": "≤ 1000"}, {"smiles": "CC(C)NC(=O)c1csc(-c2c(-c3ccc(F)cc3)n[nH]c2C2CCN(C(=O)c3ccncc3)CC2)n1", "IC50": "≤ 1000"}, {"smiles": "COc1cc(OC)c(C(=O)N2CCN(Cc3nc(-c4ccc(F)cc4)c(-c4nc(C(=O)NC(C)C)cs4)o3)CC2)c(OC)c1", "IC50": "≤ 1000"}, {"smiles": "COc1ccc(C=CC(=O)N2CCN(Cc3nc(-c4ccc(F)cc4)c(-c4nc(C(=O)NC(C)C)cs4)o3)CC2)cc1O", "IC50": "≤ 1000"}, {"smiles": "CC(C)NC(=O)c1csc(-c2c(-c3ccc(F)cc3)ncn2C)n1", "IC50": "≤ 1000"}, {"smiles": "CC(C)NC(=O)c1csc(-c2c(-c3ccc(F)cc3)n[nH]c2C2CCN(C(=O)c3cc(O)c(O)c(O)c3)CC2)n1", "IC50": "≤ 1000"}, {"smiles": "CC(C)NC(=O)c1csc(-c2oc(CN3CCN(C(=O)c4cc(O)c(O)c(O)c4)CC3)nc2-c2ccc(F)cc2)n1", "IC50": "≤ 1000"}, {"smiles": "CC(C)NC(=O)c1csc(-c2oc(CNCCc3ccc(S(N)(=O)=O)cc3)nc2-c2ccc(F)cc2)n1", "IC50": "≤ 1000"}]}]}
